Values joined by “and” are separate entries in the source; they are usually repeats but may differ in a detail not shown here. Identical values can stand only once. Like-named read-outs stand apart in the source and are kept apart here.
Key:
[1] = Pharmacokinetic analyses in mouse; format: in vivo; conditions: for AUC(0-t): read-out: AUC0-24h; for Vd: read-out: Vss
Experimental: Compound concentrations in plasma aliquots were measured by quantitative HPLC-MS/MS using an internal standard. Calibration and quality control samples were prepared using blank plasma from untreated animals. Samples were precipitated with acetonitrile and injected into a HPLC system (Agilent 1200). Separation was performed by gradients of 5 mmol/L ammonium acetate pH 4.0 and acetonitrile with 0.1% formic acid on a 2.1 mm by 50 mm XBridge BEH C18 reversed-phase column with 2.5 µm particles (Waters). The HPLC was interfaced by ESI operated in positive ionisation mode to a triple quadrupole mass spectrometer (5000 or 6500+ Triple Quad System, SCIEX) operated in multiple reaction monitoring mode. Transitions were 532.4 to 432.8 m/z for BI01810284, 525.6 to 425.7 m/z for BI01802983 and 1021.6 to 624.2 m/z for BI01580883. Chromatograms were analyzed with Analyst (SCIEX) and pharmacokinetic parameters were calculated by non-compartmental analysis using BI-proprietary software.

[2] = Body weight / tolerability in xenograft studies; format: in vivo, mouse; conditions: NCI-H1568 xenograft efficacy study, body weight changes
Experimental: To establish subcutaneous tumours, mice were injected with 5 × 10^6 NCI-H1568 in PBS with 5% FCS or with 1 × 10^7 A549 cells in PBS with 5% FCS. Tumour diameters were measured with a caliper three times a week. The volume of each tumour (in mm^3) was calculated according to the formula [tumour volume = length × diameter^2 × π/6]. To monitor side effects of treatment, mice were inspected daily for abnormalities and body weight was determined daily after the start of treatment. Animals were sacrificed when the tumours reached a size of 1500 mm^3. Mice were randomised into treatment groups when the average tumour size reached ~210–220 mm^3. Group sizes were calculated individually for each tumour model based on tumour growth during model establishment experiments. A power analysis was performed using a sample size calculator (https://www.stat.ubc.ca/~rollin/stats/ssize/n2.html). For both models used in the study, 10 mice per group were used for each experiment. All administrations were dosed with 10 ml/kg (s.c. and oral). Control mice were dosed subcutaneously with 10% HP-β-CD in 50% Ringer solution and orally with 15% HP-β-CD, that means the control mouse treatment was corresponding to the solvent of the compounds. Compound 6 was dosed subcutaneously either in a d1-4 q3d, d6-8 q2d, d11-13 q2d treatment (Treatment 1) or a q3 or 4d treatment (Treatment 2).

[3] = 5 mg/kg i.v., individual animals
[4] = 30 mg/kg p.o., individual animals
[5] = NMRI, mouse, plasma, iv, 5 mg/kg, NMRI mice, i.v., 5 mg/kg, PK study
[6] = mouse, 5 mg/kg i.v., NCA, individual animals, 5 mg/kg
[7] = mouse, 30 mg/kg p.o., NCA, individual animals, 30 mg/kg

Cc1ncsc1-c1ccc([C@H](CCCCCN2CCC(c3ccc4c(c3)n(C3CCCC3)c3nc(=O)c5c(Br)cccc5n43)CC2)NC(=O)[C@@H]2C[C@@H](O)CN2C(=O)[C@@H](NC(=O)C2(F)CC2)C(C)(C)C)cc1 [compound 11]
AUC [1, 3]: 40.7 µM·h and 36.8 µM·h
AUCinf [1, 3]: 40.9 µM·h and 37 µM·h
Concentration ([1]; 5 mg/kg i.v., time 0.25 h, individual animals): 8.05 µM
Concentration ([1]; 5 mg/kg i.v., time 1 h, individual animals): 5.35 µM
Concentration ([1]; 5 mg/kg i.v., time 6 h, individual animals): 0.807 µM
Concentration ([1]; 5 mg/kg i.v., time 24 h, individual animals): 0.0376 µM
F ([1]; 30 mg/kg p.o. vs 5 mg/kg i.v., individual animals): 4.09% and 2.11% and 6.74%
AUC [1, 4]: 8.84 µM·h and 4.54 µM·h and 14.6 µM·h
AUCinf [1, 4]: 8.88 µM·h and 4.57 µM·h and 14.6 µM·h
MRT ([1]; NMRI, mouse, plasma, iv, 5 mg/kg, NMRI mice, PK study): 2.9 h
AUC(0-t) [1, 5]: 36 µM·h
AUC(0-inf) ([1]; NMRI, mouse, plasma, iv, 5 mg/kg, NMRI mice, i.v., 5 mg/kg, PK study, read-out: AUC0-inf): 36 µM·h
clearance ([1]; NMRI, mouse, plasma, iv, 5 mg/kg, NMRI mice, i.v., 5 mg/kg, PK study, read-out: Clearance): 0.132 L/h/kg
Vd [1, 5]: 0.38 L/kg
MRT ([1]; NMRI, mouse, plasma, po, 30 mg/kg, NMRI mice, PK study): 5 h
MRT ([1]; NMRI, mouse, plasma, po, 30 mg/kg, NMRI mice, Xenograft study): 5.6 h
AUC(0-t) ([1]; NMRI, mouse, plasma, po, 30 mg/kg, NMRI mice, p.o., 30 mg/kg, PK study): 9.3 µM·h
AUC(0-inf) ([1]; NMRI, mouse, plasma, po, 30 mg/kg, NMRI mice, p.o., 30 mg/kg, PK study, read-out: AUC0-inf): 9.4 µM·h
bioavailability ([1]; NMRI, mouse, plasma, po, 30 mg/kg, NMRI mice, p.o., 30 mg/kg, PK study, read-out: Bioavailability): 4.3%
AUC(0-t) ([1]; NMRI, mouse, plasma, po, 30 mg/kg, NMRI mice, p.o., 30 mg/kg, Xenograft study): 21 µM·h
AUC(0-inf) ([1]; NMRI, mouse, plasma, po, 30 mg/kg, NMRI mice, p.o., 30 mg/kg, Xenograft study, read-out: AUC0-inf): 21 µM·h
MRT ([1]; NMRI, mouse, plasma, po, 100 mg/kg, NMRI mice): 5.1 h
AUC(0-t) ([1]; NMRI, mouse, plasma, po, 100 mg/kg, NMRI mice, p.o., 100 mg/kg): 38 µM·h
AUC(0-inf) ([1]; NMRI, mouse, plasma, po, 100 mg/kg, NMRI mice, p.o., 100 mg/kg, read-out: AUC0-inf): 39 µM·h
Plasma concentration ([1]; mouse, 5 mg/kg i.v., 0.25 h, individual animals, 5 mg/kg): 9.71 µM and 10.4 µM
Plasma concentration ([1]; mouse, 5 mg/kg i.v., 1 h, individual animals, 5 mg/kg): 5.97 µM and 6.93 µM
Plasma concentration ([1]; mouse, 5 mg/kg i.v., 6 h, individual animals, 5 mg/kg): 1.49 µM and 0.87 µM
Plasma concentration ([1]; mouse, 5 mg/kg i.v., 24 h, individual animals, 5 mg/kg): 0.0421 µM and 0.0415 µM
AUC [1, 6]: 40.7 µM·h and 36.8 µM·h
AUCinf [1, 6]: 40.9 µM·h and 37 µM·h
CL [1, 6]: 0.116 L/h/kg and 0.128 L/h/kg
Vss [1, 6]: 0.386 L/kg and 0.334 L/kg
Plasma concentration ([1]; mouse, 30 mg/kg p.o., 0.333 h, individual animals, 30 mg/kg): 0.172 µM and 0.0946 µM and 0.199 µM
Plasma concentration ([1]; mouse, 30 mg/kg p.o., 1 h, individual animals, 30 mg/kg): 0.438 µM and 0.509 µM
Plasma concentration ([1]; mouse, 30 mg/kg p.o., 2 h, individual animals, 30 mg/kg): 0.577 µM and 1.02 µM
Plasma concentration ([1]; mouse, 30 mg/kg p.o., 6 h, individual animals, 30 mg/kg): 0.565 µM and 0.239 µM and 1.04 µM
Plasma concentration ([1]; mouse, 30 mg/kg p.o., 24 h, individual animals, 30 mg/kg): 0.00648 µM and 0.0104 µM
AUC [1, 7]: 8.84 µM·h and 4.54 µM·h and 14.6 µM·h
AUCinf [1, 7]: 8.88 µM·h and 4.57 µM·h and 14.6 µM·h
F [1, 7]: 4.09% and 2.11% and 6.74%
concentration at 0.25 h ([1]; mouse, plasma, intravenous, 5 mg/kg, 5 mg/kg i.v., time 0.25 h, individual animals, read-out: Concentration): 9.71 µM
concentration at 1 h ([1]; mouse, plasma, intravenous, 5 mg/kg, 5 mg/kg i.v., time 1 h, individual animals, read-out: Concentration): 5.97 µM
concentration at 6 h ([1]; mouse, plasma, intravenous, 5 mg/kg, 5 mg/kg i.v., time 6 h, individual animals, read-out: Concentration): 1.49 µM
concentration at 24 h ([1]; mouse, plasma, intravenous, 5 mg/kg, 5 mg/kg i.v., time 24 h, individual animals, read-out: Concentration): 0.0421 µM
AUC ([1]; mouse, plasma, iv, 5 mg/kg, 5 mg/kg i.v., individual animals, read-out: AUC): 30.4 µM·h
AUC(0-inf) ([1]; mouse, plasma, iv, 5 mg/kg, 5 mg/kg i.v., individual animals, read-out: AUCinf): 30.6 µM·h
concentration at 0.25 h ([1]; mouse, plasma, iv, 5 mg/kg, mouse, 5 mg/kg i.v., 0.25 h, individual animals, read-out: Plasma concentration): 8.05 µM
concentration at 1 h ([1]; mouse, plasma, iv, 5 mg/kg, mouse, 5 mg/kg i.v., 1 h, individual animals, read-out: Plasma concentration): 5.35 µM
concentration at 6 h ([1]; mouse, plasma, iv, 5 mg/kg, mouse, 5 mg/kg i.v., 6 h, individual animals, read-out: Plasma concentration): 0.807 µM
concentration at 24 h ([1]; mouse, plasma, iv, 5 mg/kg, mouse, 5 mg/kg i.v., 24 h, individual animals, read-out: Plasma concentration): 0.0376 µM
AUC ([1]; mouse, plasma, iv, 5 mg/kg, mouse, 5 mg/kg i.v., NCA, individual animals, read-out: AUC): 30.4 µM·h
AUC(0-inf) ([1]; mouse, plasma, iv, 5 mg/kg, mouse, 5 mg/kg i.v., NCA, individual animals, read-out: AUCinf): 30.6 µM·h
clearance ([1]; mouse, plasma, iv, 5 mg/kg, mouse, 5 mg/kg i.v., NCA, individual animals, read-out: CL): 0.155 L/h/kg
Vd ([1]; mouse, plasma, iv, 5 mg/kg, mouse, 5 mg/kg i.v., NCA, individual animals): 0.435 L/kg
Vd ([1]; mouse, plasma, iv, 5 mg/kg, mouse, 5 mg/kg i.v.): 0.385 L/kg
clearance ([1]; mouse, plasma, iv, 5 mg/kg, mouse, 5 mg/kg i.v., read-out: clearance): 0.132 L/h/kg
concentration at 1 h ([1]; mouse, plasma, oral, 30 mg/kg, 30 mg/kg p.o., time 1 h, individual animals, read-out: Concentration): 0.337 µM
concentration at 2 h ([1]; mouse, plasma, oral, 30 mg/kg, 30 mg/kg p.o., time 2 h, individual animals, read-out: Concentration): 0.874 µM
concentration at 24 h ([1]; mouse, plasma, oral, 30 mg/kg, 30 mg/kg p.o., time 24 h, individual animals, read-out: Concentration): 0.00875 µM
bioavailability ([1]; mouse, plasma, oral, 30 mg/kg, mouse, 30 mg/kg p.o. vs 5 mg/kg i.v., read-out: F% p.o. (oral bioavailability)): 3%
concentration at 1 h ([1]; mouse, plasma, po, 30 mg/kg, mouse, 30 mg/kg p.o., 1 h, individual animals, read-out: Plasma concentration): 0.337 µM
concentration at 2 h ([1]; mouse, plasma, po, 30 mg/kg, mouse, 30 mg/kg p.o., 2 h, individual animals, read-out: Plasma concentration): 0.874 µM
concentration at 24 h ([1]; mouse, plasma, po, 30 mg/kg, mouse, 30 mg/kg p.o., 24 h, individual animals, read-out: Plasma concentration): 0.00875 µM
tolerability [2]: well tolerated

From paper PMC9551036, “A selective and orally bioavailable VHL-recruiting PROTAC achieves SMARCA2 degradation in vivo” (Nature Communications, 2022)
